Source: patent US20220135941A1, “COMPOSITIONS AND METHODS FOR LONG TERM CULTURE OF HEPATOCYTES” (Peking University, priority 2019, published 2022)

Tests used:
[1] = test system: primary human hepatocytes (PHHs); experiment: PHH culture: morphology and survival; assay type: cell-based
Procedure: (§1) The present study was approved by the Research Ethics Committee of China-Japan Friendship Hospital (Ethical approval No: 2009-50). PHHs were obtained from human donors. Human hepatocytes were isolated from discarded human livers. A modified two-step collagenase perfusion procedure was used to isolate primary human hepatocytes from these tissues (OOtani, et al., Nat Med., 15:701-706 (2009)). Briefly, the liver tissue was perfused with PB (perfusion buffer: 0.15 M NaCl; 5 mM KCl; 25 mM NaHCO3; 5 mM Glucose; 20 mM Hepes) to remove remaining blood cells, followed by PBE (perfusion buffer plus 1 mM EDTA) perfusion. The tissue was then perfused with PBC (perfusion buffer plus 1 mg/mL collagenase type IV, 5 mM CaCl2, Gibco). All the buffers were prewarmed to 37° C. prior to the isolation process. The hepatocytes suspension was collected and washed with Williams' Medium E (Gibco), then filtered through a 40 μm Nylon cell strainer (Falcon). The isolated hepatocytes were then seeded on collagen type I-coated (Rat tail collagen type I, Gibco) plates at a density of 2.5×10^5/cm2.
(§2) Serum-free medium used for hepatocyte culture (Null): Williams' medium E containing B27 (50×, Gibco), Glutmax (Gibco) and Pen Strep (Gibco). DMSO vehicle control: Null supplemented with nearly 0.035% DMSO. […] 24 h-Cultured hepatocytes were cultured in commercial medium HCM (Lonza).

[2] = test system: primary human hepatocytes (PHHs)
Procedure: as §1, §2
Total RNA was isolated using the RNeasy Micro Kit (QIAGEN). RNA was converted to cDNA using First-Strand Synthesis SuperMix for qRT-PCR (Invitrogen). PCR was carried out using Power SYBR® Green PCR Master Mix (Applied Biosystems) and performed on an MX3000P Sequence Detection System (Stratagene). The data were analyzed using the delta-delta Ct method.

[3] = test system: primary human hepatocytes (PHHs); experiment: RNA-Seq global gene expression profiling of cultured PHHs; assay type: cell-based; settings: hierarchical clustering
Description: Total RNA was isolated using the RNeasy Plus Mini Kit (QIAGEN). RNA sequencing libraries were constructed using the Illumina mRNA-Seq Prep Kit (Illumina). Fragmented and randomly primed 150 bp paired-end libraries were sequenced using Illumina HiSeq 4000. Software and algorithms used for transcriptome analysis are including Cutadapt 1.16 (http://cutadapt.readthedocs.io/en/stable/guide.html), Salmon 0.8.2 (https://combinelab. github.io/salmon/), and R 3.5.0 (https://www.r-project.org). The expression profiles of HepG2, F-PHHs-3 and F-PHHs-4 were downloaded as raw data. The expression profiles of PHH 0d, hiPSC-Hep rep1, hiPSC-Hep rep2, hiPSC-Hep rep3 and hiPSC-Hep rep4 (Gordillo, et al., Development, 142:2094-2108 (2015)) were downloaded as raw sequencing reads from GEO database (GSM2817112, GSM2753376, GSM2753377, GSM2753378, GSM2753379). To compare gene expression profile between paired-end and single end libraries, we used the read1 from our generated sequencing paired-end reads. The read1 and the downloaded single-end read were trimmed to the same 40 bp length by using Cut adapt. The expression values for each sample were quantified by Salmon. Unsupervised hierarchical clustering of RNA-Seq data was generated by hclust package in R.

HBV = HBV infection of 5C-PHHs; assay type: cell-based; settings: for HBV products (HBsAg, HBeAg, HBV RNA, HBV DNA, cccDNA) in infected 5C-PHHs: drug treatment of HBV infected 5C-PHHs
[4] = test system: interferon-stimulated genes (ISGs); experiment: ISG expression in long-term cultured 5C-PHHs; assay type: cell-based, human
HCV Jc1G = experiment: HCV infection of 5C-PHHs; assay type: cell-based; settings: Gluc reporter and intracellular HCV RNA
Procedure: The Huh7.5 cell line was kindly provided by Professor Charles Rice and was routinely maintained in Dulbecco modified medium supplemented with 10% fetal bovine serum (Biological industries), 25 mM HEPES (Gibco) and Non-Essential Amino Acid (Gibco). For generating the cell cultured HCV, the plasmid encoding HCV Jc1FLAG2 (p7-nsGluc2A) (Jc1G in the text) was first linearized by XbaI digestion, and used as template for in-vitro-transcription by using MEGAscript (Invitrogen). HCVcc was generated as described previously by electroporation of the in-vitro-transcribed Jc1G RNA into Huh7.5 cells. Virus containing supernatants were harvested each day after 3 days post electroporation' and up to 7 days post electroporation. Supernatants were combined and the virus was concentrated by centrifugation using Amicon® Ultra-15 (100K) Centrifugal Filter Devices (Millipore) at 5000 g for 30 min at 4° C. The buffer was exchanged into PBS by repeated centrifugation with Amicon® Ultra-15. […]
For quantification of intracellular HCV RNA, cells were lysed in Trizol reagent (Invitrogen). […] The relative RNA levels were calculated using the 2-ΔΔCt method. […]
For quantification of luciferase activity, supernatants from each well were taken and mixed with equal volume of 2×passive lysis buffer (Promega). Luciferase activity was measured with Renilla luciferase substrate (Promega) according to manufacturer's protocol.

NC(=O)c1ccc(-c2nc(-c3ccc4c(c3)OCO4)c(-c3ccccn3)[nH]2)cc1 [SB43, 4-[4-(1,3-benzodioxol-5-yl)-5-(2-pyridinyl)-1H-imidazol-2-yl]benzamide]
epithelial morphology with the expression of E-cadherin ([1]; SB43 treatment, after 2 weeks): maintained an epithelial morphology
expression of EMT-associated transcription factors SNAI2, TWIST1 ([2]; SB43 alone): failed to suppress
maintaining the functional state of PHHs ([2]; blocking TGF-β signaling with SB43 alone): limited effect

Forskolin [FSK]
PHH survival ([1]; combined with SB43): sustained PHH survival
EMT marker gene expression α-smooth muscle actin (ASMA) ([2]; combined with SB43, qRT-PCR at day 14): down-regulated

CCCC(=O)Nc1ncnc2c1ncn2[C@@H]1O[C@@H]2COP(=O)([O-])O[C@H]2[C@H]1OC(=O)CCC.[Na+] [db-cAMP, Dibutyryl-cAMP, sodium salt]
global gene expression of PHHs when FSK is substituted [3]: replaced FSK

Nc1ccn([C@@H]2CS[C@H](CO)O2)c(=O)n1 [LAM, lamivudine]
HBV products (HBsAg, HBeAg, HBV RNA, HBV DNA, cccDNA) in infected 5C-PHHs (HBV): reduction of HBV products

C[C@H](NC(=O)Cc1cc(F)cc(F)c1)C(=O)N[C@H](C(=O)OC(C)(C)C)c1ccccc1 [DAPT]
expression of EMT marker genes (COL1A1; Thy1; VIM) ([2]; added to SB43 and FSK combination): further blocked
expression of mesenchymal marker gene COL1A1 ([2]; combined with SB43 and FSK, day 14, normalized to FSK+SB43): decreased

interferon-α [IFN-α]
interferon-stimulated genes (ISGs) expression [4]: significantly upregulated
cccDNA (HBV; cryopreserved PHHs cultured in 5C): significant reduction
HBV products (HBsAg, HBeAg, HBV RNA, HBV DNA, cccDNA) in infected 5C-PHHs (HBV): reduction of HBV products

entecavir [ETV]
HBV products (HBsAg, HBeAg, HBV RNA, HBV DNA, cccDNA) in infected 5C-PHHs (HBV): reduction of HBV products

Daclatasvir [DCV]
HCV viral replication in 5C-PHHs (HCV Jc1G): effectively blocked
